Test results published in US3949075A, “Anti-microbial compounds of 2', 4' substituted anilides of substituted nitrosalicylic acid for quadruped animals” (Ferro Corporation, priority 1974, dated 1976).
Values after ≈ are worked out from the molar mass of the structure shown. Like-named read-outs stand apart in the source and are kept apart here.

Assays:
Haemonchus contortus = assay: Percent of Haemonchus destroyed or expelled in infected sheep (egg count after treatment); type: in vivo, Haemonchus contortus (in sheep); settings: sheep
Method: Two groups of sheep were used in the tests. One group was used as a non-medicated control, while the other group was treated with the compound under investigation. Helminth-free young lambs were infected with about 10,000 filariform larvae of Haemonchus contortus. In three weeks when the infection became apparent, egg counts were made to determine the density of the worm burden.
The egg count was carried out using the following modified Stoll method. Three grams of sheep feces were taken rectally from each animal and placed in a Stoll flask. To each flask, tap water was added to the top line. The fecal pellets were too hard to break down, the flasks were closed with rubber stoppers and kept in the refrigerator for several hours. The flasks were thoroughly shaken and a 1 ml. sample was drawn from the middle using a wide mouth pipette. This 1 ml. sample was transferred to an 8 ml. plastic tube, to which enough saturated sodium chloride solution was added to reach the rim. The tubes were then centrifuged for 10 minutes at 1500 r.p.m. Then sodium chloride solution was added with a medicine dropper forming a concave miniscus. A cover glass was carefully added and the tubes were kept in a refrigerator for ten to twenty minutes. During that period, the nematode ova flowed upward and adhered to the bottom of the cover glass slip. At the end of the 20-minute period, the cover slip was carefully detached from the miniscus and transferred to a microscopic slide. The ova were then counted under a microscope equipped with 10X ocular and 10X objective lens. Each ovum under the microscope represented 20 ova in the sample.
Animals with sufficiently high egg counts were taken out of the pool and housed in experimental pens. Since the salicylanilides of the present invention are water insoluble, the compounds were first ground using a mortar and pestle and then were placed in a carboxymethyl cellulose solution. The particles were further micronized ultrasonically. The compound was then administered to two or three animals by Oesophageal gavage. Control, untreated animals, received only the carboxymethyl cellulose solution in a similar manner. On the sixth and seventh day after treatment, fecal pellets were taken from the rectum of the control as well as the treated animals and egg counts were made.
(§1) The results of tests on sheep in a manner described, supra, using compounds of the present invention are given in Table 1, Examples 5 through 13. The numbers in the column headed "Haemonchus (15 mg/kg)" refer to the percent of parasites destroyed or expelled when the indicated compound was introduced into the rumen of sheep at a dosage of 15 milligrams per kilogram of body weight. The values under "Tolerance (mg/kg)" refer to the highest test dosage in the milligrams of anthelmintic per kilogram of body weight at which the sheep developed no toxic symptoms. "Tol." is an abbreviation for "tolerated". The symbols R1 and R2 refer to those of Formula I in these and other following examples.
(§2) The data of the tables were generated using procedures previously described. The compounds tested are disubstituted and, except for Example 50 which is dibromo, are dichloro. Where the position for the substituents is other than 2' and 4', it is indicated. Under the indicated microorganisms, the values given in this and the following tables, should be read as: percentage of microorganism killed/dose in milligrams per kilogram of body weight. Under "Tolerance", the term "Tol." means "tolerated", "Tox." means "toxic", and "Sym." means "symptoms of toxic reaction", all at the dosage value which follows. It will be appreciated that there is no sharp toxicity end point in determining toxicity to living sheep.

Fasciola hepatica = assay: Test for activity against liver flukes, Fasciola hepatica, in infected sheep; type: in vivo; settings: Fasciola hepatica, sheep, Tables VIII-XI, read-out: Fasciola hepatica, percentage of microorganism killed
Method: (§3) Test for activity against liver flukes were conducted as follows:
(§4) Eggs of Fasciola hepatica were collected from the bile of donor sheep. The eggs were embryonated and snails were infected (the genus Lymnaea serves as intermediate host) to produce Metacercariae which are the infective forms for sheep. Each sheep was infected with 250 metacercariae intraruminally. When the infection became patent in ca. 80 days, egg counts were carried out to determine the degree of worm burden. The liver was processed to recover F. hepatica in the untreated and treated sheep.
as §2

[1] = Tolerance / toxicity in sheep; type: in vivo; settings: in vivo, Table 1, read-out: Tolerance, highest test dosage at which the sheep developed no toxic symptoms
Method: as §1
The importance of the 2',4' substitution on the anilide moiety of Formula I is illustrated by the case of the dichloro substitution as summarized in Table III. […] This has been mentioned briefly hereinabove. As used herein, "toxic" refers to death of sheep resulting from the use of the indicated compound at the indicated dosage.
as §2

[2] = test system: Trichophyton mentagrophytes; assay: Inhibition of fungus on Sabouraud agar; type: cell-based; settings: 120 hours at 25°C., read-out: inhibitory concentration
Method: (§5) The following procedure for antibacterial evaluation was used. Test compounds were dissolved in a suitable solvent (typically dimethyl sulfoxide or acetone) and incorporated in a nutrient agar at various concentrations. The plates were then streaked with cultures of the appropriate bacteria. The inoculum contained about 8 × 10^8 organisms per milliliter. After incubation for 48 hours at 37°C., the plates were examined for evidence of growth of the microorganisms. The minimum concentration necessary for complete inhibition of growth was noted.
For testing against the fungus Trichophyton the same procedure was used, except that the test medium was Sabouraud agar, and the plates were cultured for 120 hours at 25°C. before evaluation for evidence of growth. The inoculum added to the culture media contained about 5 × 10^6 spores in a water suspension containing 0.1% peptone.

[3] = test system: liver flukes of the genus Fasciola; assay: Utility against liver flukes of the genus Fasciola in sheep (oral); type: in vivo; settings: 15 mg/kg
Method: as §3, §4
The compounds of this invention also have utility against liver flukes.

Escherichia coli = assay: Agar plate minimum inhibitory concentration; type: cell-based; settings: nutrient agar, 48 hours at 37°C., complete inhibition
Method: as §5

Haemophilus gallinarum = assay: Agar plate minimum inhibitory concentration; type: cell-based; settings: Avibacterium paragallinarum, nutrient agar, 48 hours at 37°C., complete inhibition
Method: as §5

Salmonella choleresuis = assay: Agar plate minimum inhibitory concentration; type: cell-based; settings: 48 h, read-out: Minimum Inhibitory Concentration
Method: as §5

Salmonella gallinarum = assay: Agar plate minimum inhibitory concentration; type: cell-based; settings: Salmonella enterica, nutrient agar, 48 hours at 37°C., complete inhibition
Method: as §5

Staphylococcus aureaus = assay: Agar plate minimum inhibitory concentration; type: cell-based; settings: 48 h, read-out: Minimum Inhibitory Concentration
Method: as §5

Streptococcus foecalis = assay: Agar plate minimum inhibitory concentration; type: cell-based; settings: 48 h, read-out: Minimum Inhibitory Concentration
Method: as §5

Alternaria solani = assay: Reducing infestation on tomatoes, early blight; type: in vivo, Alternaria solani (on tomatoes)
Phytophthora infestans = type: in vivo, Phytophthora infestans (on tomatoes)
[4] = Haemonchus contortus, Table V, read-out: Effectiveness at 15 mg/kg against Haemonchus
[5] = Haemonchus contortus, Tables VIII-XI, read-out: Haemonchus, percentage of microorganism killed

Q: With Cc1c([N+](=O)[O-])cc(C(C)(C)C)c(O)c1C(=O)Nc1ccc(Cl)cc1 [Example 7, 3-tert. butyl-4'-chloro-6-methyl-5-nitrosalicylanilide] as the molecule, how does the inhibition in vivo at 2 mg/kg (Haemonchus contortus; Haemonchus contortus, 2 mg/kg, Tables VIII-XI, read-out: Haemonchus, percentage of microorganism killed) read?
A: 0%

Q: And the inhibition in vivo at 5 mg/kg (Haemonchus contortus; Haemonchus contortus, 5 mg/kg, Tables VIII-XI, read-out: Haemonchus, percentage of microorganism killed)?
A: 65%

Q: What about the inhibition in vivo at 15 mg/kg (Haemonchus contortus; [4]) of the same molecule?
A: 81%

Q: What about the inhibition in vivo at 15 mg/kg (Haemonchus contortus; [5]) of the same molecule?
A: 81%

Q: What about the “Haemonchus (2 mg/kg), percent of parasites destroyed or expelled” value (Haemonchus contortus; into rumen, 2 mg/kg, Table 1) of the same molecule?
A: 0%

Q: What about the “Haemonchus (5 mg/kg), percent of parasites destroyed or expelled” value (Haemonchus contortus; into rumen, 5 mg/kg, Table 1) of the same molecule?
A: 65%

Q: And the “Haemonchus (15 mg/kg), percent of parasites destroyed or expelled” value (Haemonchus contortus; into rumen, Table 1)?
A: 81%

Q: What about the inhibition in vivo at 2 mg/kg (Fasciola hepatica; 2 mg/kg) of the same molecule?
A: 0%

Q: And the inhibition in vivo at 5 mg/kg (Fasciola hepatica)?
A: 50%

Q: And the inhibition in vivo at 15 mg/kg (Fasciola hepatica)?
A: 100%

Q: What about the NOAEL [1] of the same molecule?
A: 15 to 50 mg/kg

Q: What about the MIC [2] of the same molecule?
A: 1 µg/mL (≈ 2.76 µM)

Q: And the “effect against liver flukes” value [3]?
A: efficacious

Q: Which inhibition in vivo at 15 mg/kg (Haemonchus contortus; [4]) does the source give for Cc1c([N+](=O)[O-])cc(C(C)(C)C)c(O)c1C(=O)Nc1ccc(Br)cc1 [Example 8, 4'-bromo-3-tert. butyl-6-methyl-5-nitrosalicylanilide] here?
A: 61%

Q: And the inhibition in vivo at 15 mg/kg (Haemonchus contortus; [5])?
A: 61%

Q: And the “Haemonchus (15 mg/kg), percent of parasites destroyed or expelled” value (Haemonchus contortus; into rumen, Table 1)?
A: 61%

Q: And the inhibition in vivo at 5 mg/kg (Fasciola hepatica)?
A: 0%

Q: And the inhibition in vivo at 15 mg/kg (Fasciola hepatica)?
A: 100%

Q: What about the MIC (Escherichia coli) of the same molecule?
A: 64 µg/mL (≈ 157 µM)

Q: And the MIC (Haemophilus gallinarum)?
A: 8 µg/mL (≈ 19.6 µM)

Q: And the MIC (Salmonella choleresuis)?
A: 64 µg/mL (≈ 157 µM)

Q: And the MIC (Salmonella gallinarum)?
A: 64 µg/mL (≈ 157 µM)

Q: And the MIC (Staphylococcus aureaus)?
A: 1 µg/mL (≈ 2.46 µM)

Q: And the MIC (Streptococcus foecalis)?
A: 64 µg/mL (≈ 157 µM)

Q: What about the “reducing infestation on tomatoes, early blight” value (Alternaria solani) of the same molecule?
A: effective in reducing infestation

Q: And the “reducing infestation on tomatoes, late blight” value (Phytophthora infestans)?
A: effective in reducing infestation
